Results: ChEMBL document CHEMBL1201862, “PubChem BioAssay data set” (2004)
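1) Cells in 96-well plates. 2) Compound, 48 h, 5 concentrations. 3) Linear interpolation between surrounding doses. 4) Unreached endpoint = highest concentration. Abbreviation: GI50, concentration required for 50% inhibition of growth.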 Active and inactive are the calls of the source. Cut-off read from the data, not from the text of the source: active = GI50 up to about 1.1 µM and inactive = higher.

Columns and labels:
Test in all cases: growth of human tumour cells (NCI), 48 h
SN12C = system: SN12C
HOP-92 = system: HOP-92
MDA-MB-435 = system: MDA-MB-435
HCT-15 = system: HCT-15
LOX IMVI = system: LOX IMVI
M14 = system: M14
MDA-N = system: MDA-N
UO-31 = system: UO-31
UACC-257 = system: UACC-257
HT-29 = system: HT-29
ACHN = system: ACHN
NCI-H23 = system: NCI-H23
SF-539 = system: SF-539
SK-MEL-28 = system: SK-MEL-28
SF-268 = system: SF-268
Malme-3M = system: Malme-3M
KM12 = system: KM12
IGROV-1 = system: IGROV-1
SK-MEL-2 = system: SK-MEL-2

Measured: GI50

N=C(CC(=O)NOC(=O)c1ccccc1)NOC(=O)c1ccccc1
inactive: SN12C 29.4 µM | HOP-92 39.4 µM | MDA-MB-435 36.3 µM | LOX IMVI 17.7 µM | M14 > 100 µM | MDA-N 33.6 µM | UO-31 19.1 µM | UACC-257 > 100 µM | HT-29 > 100 µM | ACHN 29.6 µM | NCI-H23 69.7 µM | SF-539 22.1 µM | SK-MEL-28 27.5 µM | SF-268 23.2 µM | Malme-3M > 100 µM | KM12 46 µM | IGROV-1 14.7 µM
38.5 µM: HCT-15

CN1C2CCC1C(C(O)c1ccccc1[N+](=O)[O-])C(=O)C2 (centres undefined)
inactive: SN12C 33.7 µM | SK-MEL-2 > 100 µM | MDA-MB-435 23.6 µM | LOX IMVI 41.7 µM | M14 35.2 µM | MDA-N 27 µM | UO-31 47.1 µM | UACC-257 > 100 µM | HT-29 32.4 µM | ACHN > 100 µM | NCI-H23 73.8 µM | SF-539 29.8 µM | SK-MEL-28 > 100 µM | SF-268 57.1 µM | Malme-3M > 100 µM | KM12 36.5 µM | IGROV-1 24.9 µM
19.5 µM: HCT-15

CC(C)(C)OC(=O)NCCNC(=O)OCc1ccccc1
> 100 µM: HCT-15
inactive: SN12C > 100 µM | SK-MEL-2 > 100 µM | HOP-92 > 100 µM | MDA-MB-435 > 100 µM | M14 > 100 µM | MDA-N > 100 µM | UO-31 > 100 µM | UACC-257 > 100 µM | HT-29 > 100 µM | ACHN > 100 µM | NCI-H23 > 100 µM | SF-539 > 100 µM | SK-MEL-28 > 100 µM | SF-268 > 100 µM | Malme-3M > 100 µM | KM12 > 100 µM | IGROV-1 > 100 µM

CC(=O)OCCn1cnc2nc(Nc3ccccc3)nc(Cl)c21
inactive: SN12C > 100 µM | HOP-92 13.6 µM | MDA-MB-435 25.1 µM | LOX IMVI 44.4 µM | MDA-N 36.1 µM | UACC-257 76.9 µM | HT-29 > 100 µM | ACHN 42 µM | NCI-H23 > 100 µM | SF-539 > 100 µM | SK-MEL-28 > 100 µM | SF-268 > 100 µM | Malme-3M > 100 µM | KM12 29.2 µM | IGROV-1 > 100 µM
45.4 µM: HCT-15

CCCNC(=S)N/N=C/c1cccc(C)n1
18.5 µM: HCT-15
inactive: SN12C 29.2 µM | HOP-92 49 µM | MDA-MB-435 36.8 µM | LOX IMVI 16.6 µM | M14 12.3 µM | MDA-N 30.6 µM | UO-31 17.2 µM | UACC-257 33 µM | HT-29 18 µM | ACHN 13.4 µM | NCI-H23 28.9 µM | SF-539 25.2 µM | Malme-3M 12.7 µM | KM12 > 100 µM | IGROV-1 42.7 µM
active: SK-MEL-2 1.09 µM

CCN1CC2=C(OC(N)=C(C#N)C2c2ccc(Cl)cc2)/C(=C/c2ccc(Cl)cc2)C1 (centres undefined)
active: HOP-92 0.527 µM
45.8 µM: HCT-15
inactive: SK-MEL-2 27.6 µM | MDA-MB-435 43.3 µM | LOX IMVI 26.8 µM | M14 21.5 µM | MDA-N 35 µM | UO-31 36.4 µM | UACC-257 28.1 µM | HT-29 38.7 µM | ACHN 15.7 µM | NCI-H23 22.5 µM | SK-MEL-28 14.9 µM | SF-268 17.8 µM | Malme-3M 18.9 µM | KM12 33.2 µM | IGROV-1 20.8 µM

O=C1Nc2c(Cl)cc(Cl)cc2/C1=N/NC(=O)c1ccccc1O
inactive: SN12C 16.7 µM | SK-MEL-2 12.7 µM | HOP-92 15 µM | MDA-MB-435 13.2 µM | LOX IMVI 12.9 µM | M14 16.1 µM | MDA-N 14.4 µM | UO-31 11.9 µM | UACC-257 17.9 µM | HT-29 18.7 µM | ACHN 12.8 µM | NCI-H23 18.2 µM | SF-539 14.6 µM | SK-MEL-28 15.5 µM | Malme-3M 13.6 µM | KM12 15.5 µM | IGROV-1 12.3 µM
14.8 µM: HCT-15

CN(C(=O)Cc1ccccc1)n1cn[n+](CC(=O)OC(C)(C)C)c1
inactive: SN12C > 10 µM | HOP-92 > 10 µM | MDA-MB-435 > 10 µM | LOX IMVI > 10 µM | M14 > 10 µM | MDA-N > 10 µM | UO-31 > 10 µM | UACC-257 > 10 µM | HT-29 > 10 µM | ACHN > 10 µM | NCI-H23 > 10 µM | SF-539 > 10 µM | SK-MEL-28 > 10 µM | SF-268 > 10 µM | Malme-3M > 10 µM | KM12 > 10 µM | IGROV-1 > 10 µM
> 10 µM: HCT-15

N/C(=N\c1ccccc1Cl)c1ccccc1N
> 100 µM: HCT-15
inactive: SK-MEL-2 > 100 µM | HOP-92 16 µM | MDA-MB-435 > 100 µM | LOX IMVI > 100 µM | M14 > 100 µM | MDA-N > 100 µM | UO-31 > 100 µM | UACC-257 > 100 µM | HT-29 > 100 µM | ACHN > 100 µM | NCI-H23 > 100 µM | SK-MEL-28 > 100 µM | SF-268 > 100 µM | Malme-3M > 100 µM | KM12 > 100 µM | IGROV-1 45.8 µM

COc1ccc(-c2ncnc(-c3ccc(OC)c(OC)c3)n2)cc1OC
inactive: SN12C > 100 µM | SK-MEL-2 > 100 µM | HOP-92 > 100 µM | MDA-MB-435 > 100 µM | LOX IMVI > 100 µM | M14 > 100 µM | MDA-N > 100 µM | UO-31 91 µM | UACC-257 > 100 µM | HT-29 > 100 µM | ACHN > 100 µM | NCI-H23 > 100 µM | SK-MEL-28 > 100 µM | SF-268 > 100 µM | Malme-3M > 100 µM | KM12 > 100 µM | IGROV-1 > 100 µM

Cc1ccc(C)c2c1NC(=O)/C2=N\Nc1ccccc1[N+](=O)[O-]
inactive: SN12C > 100 µM | SK-MEL-2 78 µM | HOP-92 40.7 µM | MDA-MB-435 > 100 µM | LOX IMVI > 100 µM | M14 > 100 µM | MDA-N > 100 µM | UO-31 > 100 µM | UACC-257 > 100 µM | ACHN > 100 µM | NCI-H23 > 100 µM | SF-539 98.2 µM | SK-MEL-28 > 100 µM | SF-268 > 100 µM | KM12 > 100 µM | IGROV-1 10.7 µM
> 100 µM: HCT-15

CCOC(=O)c1sc2c(c1O)c(=O)n(-c1ccccc1)c(=S)n2-c1ccccc1
78 µM: HCT-15
inactive: SN12C 61.1 µM | SK-MEL-2 > 100 µM | HOP-92 86.1 µM | MDA-MB-435 > 100 µM | LOX IMVI > 100 µM | M14 > 100 µM | MDA-N > 100 µM | UO-31 87.3 µM | UACC-257 > 100 µM | HT-29 80.5 µM | ACHN 81.1 µM | NCI-H23 91.4 µM | SK-MEL-28 > 100 µM | SF-268 > 100 µM | Malme-3M > 100 µM | KM12 46.7 µM | IGROV-1 > 100 µM

CCOC(=O)c1ccc(Nc2nc3ccccc3nc2C(=O)OCC)cc1
> 100 µM: HCT-15
inactive: SN12C > 100 µM | SK-MEL-2 > 100 µM | HOP-92 43.1 µM | MDA-MB-435 > 100 µM | M14 > 100 µM | MDA-N > 100 µM | UO-31 > 100 µM | HT-29 > 100 µM | ACHN > 100 µM | NCI-H23 > 100 µM | SF-539 > 100 µM | SK-MEL-28 > 100 µM | SF-268 > 100 µM | Malme-3M > 100 µM | KM12 75.5 µM | IGROV-1 > 100 µM

Cc1n2nc(N)sc2n[n+]1Cc1ccccc1
> 100 µM: HCT-15
inactive: SN12C > 100 µM | SK-MEL-2 > 100 µM | MDA-MB-435 > 100 µM | LOX IMVI > 100 µM | M14 > 100 µM | MDA-N > 100 µM | UO-31 > 100 µM | UACC-257 > 100 µM | HT-29 > 100 µM | ACHN > 100 µM | NCI-H23 > 100 µM | SF-539 > 100 µM | SK-MEL-28 > 100 µM | SF-268 48.8 µM | Malme-3M > 100 µM | KM12 > 100 µM | IGROV-1 58.9 µM

NCc1ccc(C(=O)O)cc1 [AMINOMETHYLBENZOIC ACID]
inactive: SN12C > 100 µM | HOP-92 > 100 µM | MDA-MB-435 > 100 µM | LOX IMVI > 100 µM | M14 > 100 µM | MDA-N > 100 µM | UO-31 > 100 µM | UACC-257 > 100 µM | HT-29 > 100 µM | ACHN > 100 µM | NCI-H23 > 100 µM | SK-MEL-28 > 100 µM | SF-268 > 100 µM | Malme-3M > 100 µM | KM12 > 100 µM | IGROV-1 > 100 µM
> 100 µM: HCT-15

COc1cccc(/C=N/C(/N=C/c2cccc(OC)c2O)c2cccc(OC)c2O)c1O
7.5 µM: HCT-15
inactive: SN12C 19.2 µM | SK-MEL-2 14.8 µM | HOP-92 31.7 µM | MDA-MB-435 28.3 µM | LOX IMVI 10.5 µM | M14 17.1 µM | MDA-N 26.4 µM | UO-31 20.1 µM | UACC-257 23.1 µM | HT-29 24.4 µM | ACHN 21.5 µM | NCI-H23 28.8 µM | SF-539 20.1 µM | SK-MEL-28 18.7 µM | SF-268 10.6 µM | KM12 22.6 µM | IGROV-1 21.7 µM
